Measurements from the supplement of paper PMC9013687.

Tests used:
Danio rerio embryo [1] = test: EC10 Pigmentation decrease; higher = less potent
Description: (§1)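 Zebrafish embryos (UFZ-OBI strain) were exposed from 2 hpf for 48 h (2 dpf) or 96 h (4 dpf) at 28 °C; spontaneous tail coiling was scored at 25 hpf. Morphological features from automated image analysis (FishInspector), heart rate and locomotor response were fitted with drc models. Quantal endpoints were dichotomised at 2.5 SD from controls and fitted with a log-logistic model; heart rate, pigmentation and STC were normalised to the replicate control mean. Betamethasone was tested as betamethasone dipropionate, diflorasone as diflorasone diacetate.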

Danio rerio embryo [2] = test: EC20 Heart rate; higher = less potent
Description: as §1

Danio rerio embryo [3] = conditions: exposure time: 4 dpf
Description: as §1

Danio rerio embryo [4] = test: EC50 Eye size_Decrease
Description: as §1

Danio rerio embryo [5] = tested on: Danio rerio embryo
Description: as §1

Danio rerio embryo [6] = test: EC20 Head size_Decrease; higher = less potent
Description: as §1

Danio rerio embryo [7] = test: EC20 Head trunk angle_Decrease; higher = less potent; conditions: exposure time: 2 dpf
Description: as §1

Danio rerio embryo [8] = test: EC20 Lack of SB; higher = less potent; conditions: exposure time: 4 dpf
Description: as §1

Danio rerio embryo [9] = test: EC10 Mandibular arch distance_Decrease; higher = less potent; conditions: exposure time: 4 dpf
Description: as §1

Danio rerio embryo [10] = test: EC10 Eye size_Decrease; higher = less potent
Description: as §1

Danio rerio embryo [11] = test: EC20 Mandibular arch distance_Decrease; higher = less potent; conditions: exposure time: 4 dpf
Description: as §1

Danio rerio embryo [12] = test: EC10 STC bell shape; higher = less potent; conditions: exposure time: 25 h
Description: as §1

Danio rerio embryo [13] = test: EC50 Head size_Decrease
Description: as §1

Danio rerio embryo [14] = test: EC10 Head trunk angle_Decrease; higher = less potent; conditions: exposure time: 2 dpf
Description: as §1

Danio rerio embryo [15] = test: EC10 Heart rate; higher = less potent
Description: as §1

Danio rerio embryo [16] = test: EC50 Head trunk angle_Decrease; conditions: exposure time: 2 dpf
Description: as §1

Danio rerio embryo [17] = test: EC10 Lack of SB; higher = less potent; conditions: exposure time: 4 dpf
Description: as §1

Danio rerio embryo [18] = tested on: Danio rerio embryo; remark: listed apart in the source
Description: as §1

Danio rerio embryo [19] = test: EC50 Mandibular arch distance_Decrease; conditions: exposure time: 4 dpf
Description: as §1

Danio rerio embryo [20] = test: EC20 Pigmentation decrease; higher = less potent
Description: as §1

Danio rerio embryo [21] = test: EC10 Head size_Decrease; higher = less potent
Description: as §1

Danio rerio embryo [22] = test: EC20 STC bell shape; higher = less potent; conditions: exposure time: 25 h
Description: as §1

Danio rerio embryo [23] = test: EC20 Eye size_Decrease; higher = less potent
Description: as §1

Danio rerio embryo [24] = test: EC10 STC decrease; higher = less potent; conditions: exposure time: 25 h
Description: as §1

Danio rerio embryo [25] = test: EC20 STC decrease; higher = less potent; conditions: exposure time: 25 h
Description: as §1

Danio rerio embryo [26] = test: EC10 LMR ligth decrease; higher = less potent; conditions: exposure time: 4 dpf
Description: as §1

Danio rerio embryo [27] = test: EC20 LMR ligth decrease; higher = less potent; conditions: exposure time: 4 dpf
Description: as §1

Compound: CCCCC(O)(Cn1cncn1)c1ccc(Cl)cc1Cl (stereo not given) [Hexaconazole]
- EC10 Pigmentation decrease (Danio rerio embryo [1]; exposure time: 2 dpf): 17.8 µM
- EC20 Heart rate (Danio rerio embryo [2]; exposure time: 2 dpf): 14.8 µM
- EC20 Heart rate (Danio rerio embryo [2]; exposure time: 4 dpf): 11.1 µM
- EC50 Lack of SB (Danio rerio embryo [3]): 10.3 µM
- EC50 Eye size Decrease (Danio rerio embryo [4]; exposure time: 2 dpf): 56.1 µM
- EC50 Eye size Decrease (Danio rerio embryo [4]; exposure time: 4 dpf): 15.1 µM
- EC50 Heart rate (Danio rerio embryo [5]; exposure time: 2 dpf): 39.8 µM
- EC20 Head size Decrease (Danio rerio embryo [6]; exposure time: 2 dpf): 40.3 µM
- EC20 Head trunk angle Decrease (Danio rerio embryo [7]): 16 µM
- EC20 Lack of SB (Danio rerio embryo [8]): 7.52 µM
- EC10 Mandibular arch distance Decrease (Danio rerio embryo [9]): 19.8 µM
- EC10 Eye size Decrease (Danio rerio embryo [10]; exposure time: 2 dpf): 44.9 µM
- EC10 Eye size Decrease (Danio rerio embryo [10]; exposure time: 4 dpf): 10.7 µM
- EC20 Mandibular arch distance Decrease (Danio rerio embryo [11]): 24.9 µM
- EC10 STC bell shape (Danio rerio embryo [12]): 17.5 µM
- EC50 Head size Decrease (Danio rerio embryo [13]; exposure time: 2 dpf): 54.3 µM
- EC10 Head trunk angle Decrease (Danio rerio embryo [14]): 12.8 µM
- EC10 Heart rate (Danio rerio embryo [15]; exposure time: 2 dpf): 8.31 µM
- EC10 Heart rate (Danio rerio embryo [15]; exposure time: 4 dpf): 5.53 µM
- EC50 Head trunk angle Decrease (Danio rerio embryo [16]): 23.3 µM
- EC10 Lack of SB (Danio rerio embryo [17]): 6.28 µM
- EC50 Pigmentation decrease (Danio rerio embryo [18]; exposure time: 2 dpf): 22.6 µM
- EC50 Mandibular arch distance Decrease (Danio rerio embryo [19]): 37.1 µM
- EC20 Pigmentation decrease (Danio rerio embryo [20]; exposure time: 2 dpf): 19.4 µM
- EC10 Head size Decrease (Danio rerio embryo [21]; exposure time: 2 dpf): 33.8 µM
- EC20 STC bell shape (Danio rerio embryo [22]): 19.2 µM
- EC20 Eye size Decrease (Danio rerio embryo [23]; exposure time: 2 dpf): 48.8 µM
- EC20 Eye size Decrease (Danio rerio embryo [23]; exposure time: 4 dpf): 12.2 µM

Compound: CCOC(=O)N1CCC(=C2c3ccc(Cl)cc3CCc3cccnc32)CC1 [Loratadine]
- EC10 Pigmentation decrease (Danio rerio embryo [1]; exposure time: 4 dpf): 8.11 µM
- EC20 Heart rate (Danio rerio embryo [2]; exposure time: 2 dpf): 2.72 µM
- EC20 Heart rate (Danio rerio embryo [2]; exposure time: 4 dpf): 2.18 µM
- EC50 Lack of SB (Danio rerio embryo [3]): 0.282 µM
- EC50 Eye size Decrease (Danio rerio embryo [4]; exposure time: 2 dpf): 8.45 µM
- EC50 Eye size Decrease (Danio rerio embryo [4]; exposure time: 4 dpf): 6.82 µM
- EC10 STC decrease (Danio rerio embryo [24]): 3.8 µM
- EC50 Heart rate (Danio rerio embryo [5]; exposure time: 2 dpf): 14.8 µM
- EC50 Heart rate (Danio rerio embryo [5]; exposure time: 4 dpf): 7.03 µM
- EC20 Head size Decrease (Danio rerio embryo [6]; exposure time: 2 dpf): 4.61 µM
- EC20 Head size Decrease (Danio rerio embryo [6]; exposure time: 4 dpf): 8.95 µM
- EC20 Head trunk angle Decrease (Danio rerio embryo [7]): 5.06 µM
- EC20 Lack of SB (Danio rerio embryo [8]): 0.202 µM
- EC10 Eye size Decrease (Danio rerio embryo [10]; exposure time: 2 dpf): 5.86 µM
- EC10 Eye size Decrease (Danio rerio embryo [10]; exposure time: 4 dpf): 5.5 µM
- EC50 Head size Decrease (Danio rerio embryo [13]; exposure time: 2 dpf): 12.7 µM
- EC50 Head size Decrease (Danio rerio embryo [13]; exposure time: 4 dpf): 14.1 µM
- EC10 Head trunk angle Decrease (Danio rerio embryo [14]): 4.17 µM
- EC10 Heart rate (Danio rerio embryo [15]; exposure time: 2 dpf): 1.01 µM
- EC10 Heart rate (Danio rerio embryo [15]; exposure time: 4 dpf): 1.1 µM
- EC50 Head trunk angle Decrease (Danio rerio embryo [16]): 7.05 µM
- EC10 Lack of SB (Danio rerio embryo [17]): 0.167 µM
- EC50 Pigmentation decrease (Danio rerio embryo [18]; exposure time: 4 dpf): 9.57 µM
- EC20 STC decrease (Danio rerio embryo [25]): 4.66 µM
- EC20 Pigmentation decrease (Danio rerio embryo [20]; exposure time: 4 dpf): 8.62 µM
- EC10 Head size Decrease (Danio rerio embryo [21]; exposure time: 2 dpf): 2.55 µM
- EC10 Head size Decrease (Danio rerio embryo [21]; exposure time: 4 dpf): 6.85 µM
- EC20 Eye size Decrease (Danio rerio embryo [23]; exposure time: 2 dpf): 6.71 µM
- EC20 Eye size Decrease (Danio rerio embryo [23]; exposure time: 4 dpf): 5.96 µM

Compound: CN(Cc1cnc2nc(N)nc(N)c2n1)c1ccc(C(=O)N[C@@H](CCC(=O)O)C(=O)O)cc1 [Methotrexate]
- EC10 LMR ligth decrease (Danio rerio embryo [26]): 32.5 µM
- EC10 Pigmentation decrease (Danio rerio embryo [1]; exposure time: 2 dpf): 185 µM
- EC50 Lack of SB (Danio rerio embryo [3]): 108 µM
- EC50 Eye size Decrease (Danio rerio embryo [4]; exposure time: 4 dpf): 162 µM
- EC20 LMR ligth decrease (Danio rerio embryo [27]): 53.8 µM
- EC20 Head trunk angle Decrease (Danio rerio embryo [7]): 180 µM
- EC20 Lack of SB (Danio rerio embryo [8]): 91 µM
- EC10 Eye size Decrease (Danio rerio embryo [10]; exposure time: 4 dpf): 96.2 µM
- EC10 Head trunk angle Decrease (Danio rerio embryo [14]): 148 µM
- EC50 Head trunk angle Decrease (Danio rerio embryo [16]): 252 µM
- EC10 Lack of SB (Danio rerio embryo [17]): 82.2 µM
- EC20 Pigmentation decrease (Danio rerio embryo [20]; exposure time: 2 dpf): 235 µM
- EC20 Eye size Decrease (Danio rerio embryo [23]; exposure time: 4 dpf): 116 µM
